Experimental data as given in patent EP0101412A2, “Anthelmintics” (CIBA-GEIGY AG, priority 1982, dated 1984).
Several values for one entry are separate records, joined by “and”; a condition that tells them apart may be missing. Equal entries are not always repeated.

Tested on: Fasciola hepatica
Experiment: Trial in sheep artificially infected with Fasciola hepatica (faecal egg counts and adult helminth counts at necropsy)
Type: in vivo, Schafe
Conditions: for adulte Helminthen Mittelwert: group mean of 4 sheep; for EPG 12. Woche / EPG 13. Woche / adulte Helminthen Anzahl: sheep, individual animals; for EPG 12. Woche: 12th week after infection; for EPG 13. Woche: 13th week after infection; for adulte Helminthen Anzahl: at necropsy; for adulte Helminthen Reduktion in %: versus untreated control animals
Description: Versuch an mit Fasciola hepatica und Nematoden […] von Fasciola hepatica infiziert. Zu diesem Zweck […] in einer wässrigen 0,4%igen Suspension von Carboxymethylcellulose direkt in den Rumen […] oral mit je 10.000 bzw. 5.000 […] 3) von […] Trichostrongylus colubriformis und Haemonchus contortus infiziert. Für die Medikierung wurden die Versuchstiere in gleichgrossen Gruppen und in […], in denen der Anteil von Wirkstoff der Formel 1 2-5 mg/kg und der Anteil Wirkstoff der Formel II 3-7 mg/kg betrugen, an die […] in Gehegeboxen unter Normalbedingungen gehalten. Zur […] in bestimmten Zeitinvervallen nach Infizierung und Medikierung die mit dem Kot […] und die […]. Die erhaltenen Resultate […] und der Kontrollgruppen wurden für die Auswertung verglichen. Indikation: Fasciola hepatica […]): 19

SMILES	adulte Helminthen Mittelwert (II 6,75 mg/kg)	EPG 12. Woche (II 6,75 mg/kg)	EPG 13. Woche (II 6,75 mg/kg)	adulte Helminthen Anzahl (II 6,75 mg/kg)	adulte Helminthen Reduktion in % (II 6,75 mg/kg)	adulte Helminthen Mittelwert (I 2,5 mg/kg)	EPG 12. Woche (I 2,5 mg/kg)	EPG 13. Woche (I 2,5 mg/kg)	adulte Helminthen Anzahl (I 2,5 mg/kg)	adulte Helminthen Reduktion in % (I 2,5 mg/kg)
c1ccc([C@H]2CN3CCSC3=N2)cc1 [Substanz II, L-(-)-2,3,5,6-Tetrahydro-6-phenylimidazo[2,1-b]-thiazol]	92,8	225 Eier pro gr Faeces and 990 Eier pro gr Faeces and 160 Eier pro gr Faeces and 226 Eier pro gr Faeces	810 Eier pro gr Faeces and 1140 Eier pro gr Faeces and 250 Eier pro gr Faeces (2×)	103 and 108 and 71 and 89	9,6%					
CSc1nc2cc(Cl)c(Oc3cccc(Cl)c3Cl)cc2[nH]1 [Substanz I, 5-Chlor-6-(2',3'-dichlorphenoxy)-2-methylthiobenzimidazol]						48,5	210 Eier pro gr Faeces and 160 Eier pro gr Faeces and 120 Eier pro gr Faeces and 20 Eier pro gr Faeces	130 Eier pro gr Faeces and 160 Eier pro gr Faeces and 180 Eier pro gr Faeces and 15 Eier pro gr Faeces	58 and 65 and 51 and 20	52,7%
